Values quoted from earlier work as cited in patent publication US8609668B2, “Substituted triazolo[1,5-A]pyrimidines as antiviral agents” (Philadelphia Health & Education Corporation, priority 2006, dated 2013).

System: HBeAg secretion
Conditions: in vivo and in vitro

Structure (SMILES): O=c1oc2c(O)c(O)cc3c(=O)oc4c(O)c(O)cc1c4c23 [Ellagic acid]
- secretion of HBeAg: specifically inhibit secretion of HBeAg
